Measurements published in ChEMBL document CHEMBL3774385, “Small molecule glycoconjugates with anticancer activity” (Eur J Med Chem, 2016).
Calls of active or inactive are those of the source. The calls are words filed in the database; no cut-off is given here.

Assays:
[1] = Antiproliferative activity against p53 deficient human HCT116 cells after 96 hrs by MTS assay; type: functional, cell-based; settings: HCT-116, 96 h
[2] = Antiproliferative activity against p53 expressing human HCT116 cells after 96 hrs by MTS assay; type: functional, cell-based; settings: HCT-116, 96 h
HCT-116 [3] = assay: Induction of apoptosis in p53 expressing human HCT116 cells assessed as early apoptotic cells at IC50 after 48 hrs by acridine orange/ethidium bromide staining-based epifluorescence microscopy; type: functional, cell-based
[4] = Binding affinity to Zn2+ assessed as compound-metal complex formation at compound to metal ratio of 1:0, 1:1, 2:1, 3:1, 4:1 and 5:1 after 30 mins by UV-visible spectrophotometry
NHDF = assay: Cytotoxicity against human NHDF cells after 96 hrs by MTS assay; type: cell-based
HCT-116 [5] = assay: Induction of reactive oxygen species generation in p53 expressing human HCT116 cells at 2 times IC50 for 24 hrs by inverted fluorescent microscopy; type: functional, cell-based
[6] = Binding affinity to Cu2+ assessed as compound-metal complex formation at compound to metal ratio of 1:0, 1:1, 2:1, 3:1, 4:1 and 5:1 after 30 mins by UV-visible spectrophotometry
Calf thymus DNA = assay: Binding affinity to calf thymus DNA assessed as hypochromism at 3 to 25 uM after 1.5 hrs by UV-visible spectrophotometry; type: nucleic-acid assay; settings: Bos taurus
HCT-116 [7] = assay: Induction of apoptosis in p53 expressing human HCT116 cells assessed as late apoptotic cells at IC50 after 48 hrs by acridine orange/ethidium bromide staining-based epifluorescence microscopy; type: functional, cell-based
HCT-116 [8] = assay: Induction of apoptosis in p53 deficient human HCT116 cells assessed as caspase-3/7 activation at IC50 after 30 to 48 hrs by luminescence assay; type: functional, cell-based
HCT-116 [9] = assay: Induction of apoptosis in p53 expressing human HCT116 cells assessed as caspase-3/7 activation at IC50 after 30 to 48 hrs by luminescence assay; type: functional, cell-based
HCT-116 [10] = assay: Antiproliferative activity against p53 deficient human HCT116 cells at IC50 after 96 hrs by MTS assay in presence of 50 uM ZnCl2; type: functional, cell-based
HCT-116 [11] = assay: Decrease in GSH level in p53 expressing human HCT116 cells at IC50 after 12 hrs by luminescence analysis; type: functional, cell-based
[12] = Antiproliferative activity against p53 deficient human HCT116 cells at IC50 after 96 hrs by MTS assay in presence of 20 uM CuCl2; type: functional, HCT-116
HCT-116 [13] = assay: Antiproliferative activity against p53 expressing human HCT116 cells at IC50 after 3 to 96 hrs by MTS assay in presence of 10 to 50 uM glucose; type: functional, cell-based
HCT-116 [14] = assay: Induction of intracellular reactive oxygen species generation in p53 expressing human HCT116 cells at IC50 after 12 hrs by fluorescence-based plate reader analysis; type: functional, cell-based
[15] = Antiproliferative activity against p53 expressing human HCT116 cells at IC50 after 96 hrs by MTS assay in presence of 20 uM CuCl2; type: functional, HCT-116
HCT-116 [16] = assay: Antiproliferative activity against p53 expressing human HCT116 cells at IC50 after 96 hrs by MTS assay in presence of 50 uM of ZnCl2; type: functional, cell-based
HCT-116 [17] = assay: Induction of intracellular reactive oxygen species generation in p53 expressing human HCT116 cells at IC50 after 6 hrs by fluorescence-based plate reader analysis; type: functional, cell-based

Work on Cc1ccc2ccc(C(=O)N[C@@H]3O[C@H](CO)[C@@H](O)[C@H](O)[C@H]3O)c(O)c2n1 yielded an IC50 [1] of over 750 µM and an IC50 [2] of over 750 µM.
CC(=O)OC[C@H]1O[C@@H](Sc2ccc(N)cc2)[C@H](OC(C)=O)[C@@H](OC(C)=O)[C@@H]1OC(C)=O gave an IC50 [1] of over 150 µM and an IC50 [2] of over 150 µM.
For CC(=O)OC[C@H]1O[C@@H](SC(=O)c2ccc3ccc(C)nc3c2O)[C@H](OC(C)=O)[C@@H](OC(C)=O)[C@H]1OC(C)=O, the IC50 [1] was over 25 µM and the IC50 [2] was over 25 µM.
In the case of CC(=O)OC[C@H]1O[C@@H](Sc2ccc(N)cc2)[C@H](OC(C)=O)[C@@H](OC(C)=O)[C@H]1OC(C)=O, the IC50 [1] is reported as over 150 µM and the IC50 [2] is reported as over 150 µM.
With CC(=O)OC[C@H]1O[C@@H](Sc2ccc(NC(=O)c3ccc4ccc(C)nc4c3O)cc2)[C@H](OC(C)=O)[C@@H](OC(C)=O)[C@@H]1OC(C)=O the Activity (HCT-116 [3]) was “Active”, the Activity [4] was “Active” and the IC50 (NHDF) was 12.4 µM. For the same compound, the IC50 [1] was 10.7 µM, the IC50 [2] was 12 µM and the Activity (HCT-116 [5]) was “Active”. For the same compound, the Activity [6] was “Active”, the Activity (Calf thymus DNA) was 10.7% and the Activity (HCT-116 [7]) was “Active”. For the same compound, the Activity (HCT-116 [8]) was “inactive” and the Activity (HCT-116 [9]) was “inactive”.
With CC(=O)OC[C@H]1O[C@@H](Sc2ccc(NC(=O)c3ccc4ccc(C)nc4c3O)cn2)[C@H](OC(C)=O)[C@@H](OC(C)=O)[C@@H]1OC(C)=O the Activity (HCT-116 [3]) was “Active”, the Activity [4] was “Active” and the IC50 (NHDF) was 11.5 µM. For the same compound, the Activity (HCT-116 [10]) was “inactive”, the IC50 [1] was 4.42 µM and the IC50 [2] was 4.88 µM. The Activity (HCT-116 [5]) was “Active”, the Activity [6] was “Active” and the Activity (HCT-116 [11]) was “Active”. The Activity [12] was 75%, the Activity (HCT-116 [13]) was “inactive” and the Activity (Calf thymus DNA) was 41.5%. The Activity (HCT-116 [7]) was “Active”, the Activity (HCT-116 [8]) was “inactive” and the Activity (HCT-116 [9]) was “inactive”. For the same compound, the Activity (HCT-116 [14]) was “Active”.
With CC(=O)OC[C@H]1O[C@@H](Sc2ccc(NC(=O)c3ccc4ccc(C)nc4c3O)cn2)[C@H](OC(C)=O)[C@@H](OC(C)=O)[C@H]1OC(C)=O the Activity (HCT-116 [3]) was “Active”, the Activity [4] was “Active” and the IC50 (NHDF) was 9.32 µM. For the same compound, the IC50 [1] was 7.05 µM, the IC50 [2] was 7.86 µM and the Activity (HCT-116 [5]) was “Active”. For the same compound, the Activity [6] was “Active”, the Activity (HCT-116 [13]) was “inactive” and the Activity (Calf thymus DNA) was 26.1%. For the same compound, the Activity (HCT-116 [7]) was “Active”, the Activity (HCT-116 [8]) was “inactive” and the Activity (HCT-116 [9]) was “inactive”.
In the case of COc1cccc2c1C(=O)c1c(O)c3c(c(O)c1C2=O)C[C@@](O)(C(=O)CO)C[C@@H]3O[C@H]1C[C@H](N)[C@H](O)[C@H](C)O1 [DOXORUBICIN], the IC50 (NHDF) is reported as 3.38 µM, the IC50 [1] is reported as 0.38 µM and the IC50 [2] is reported as 0.34 µM.
Compound CC(=O)OC[C@H]1O[C@@H](N)[C@H](OC(C)=O)[C@@H](OC(C)=O)[C@@H]1OC(C)=O has an IC50 [1] of over 300 µM and an IC50 [2] of over 450 µM.
Work on CC(=O)OC[C@H]1O[C@@H](SC(=O)c2ccc3nc(C)ccc3c2O)[C@H](OC(C)=O)[C@@H](OC(C)=O)[C@H]1OC(C)=O yielded an IC50 [1] of over 25 µM and an IC50 [2] of over 25 µM.
In the case of CC(=O)OC[C@H]1O[C@@H](Sc2ccc(NC(=O)c3ccc4nc(C)ccc4c3O)cc2)[C@H](OC(C)=O)[C@@H](OC(C)=O)[C@@H]1OC(C)=O, the IC50 [1] is reported as over 25 µM and the IC50 [2] is reported as over 25 µM.
With CC(=O)OC[C@H]1O[C@@H](Sc2ccc(NC(=O)c3ccc4ccc(C)nc4c3O)cc2)[C@H](OC(C)=O)[C@@H](OC(C)=O)[C@H]1OC(C)=O the Activity (HCT-116 [3]) was “Active”, the Activity [4] was “Active” and the IC50 (NHDF) was 13.3 µM. For the same compound, the IC50 [1] was 8.94 µM, the IC50 [2] was 12.6 µM and the Activity (HCT-116 [5]) was “Active”. The Activity [6] was “Active”, the Activity (HCT-116 [13]) was “inactive” and the Activity (Calf thymus DNA) was 17.2%. For the same compound, the Activity (HCT-116 [7]) was “Active” and the Activity (HCT-116 [9]) was “Active”.
CC(=O)OC[C@H]1O[C@@H](SC(=O)c2ccc3nc(C)ccc3c2O)[C@H](OC(C)=O)[C@@H](OC(C)=O)[C@@H]1OC(C)=O gave an IC50 [1] of over 25 µM and an IC50 [2] of over 25 µM.
CC(=O)OC[C@H]1O[C@@H](Sc2ccc(N)cn2)[C@H](OC(C)=O)[C@@H](OC(C)=O)[C@@H]1OC(C)=O showed an IC50 [1] of over 150 µM and an IC50 [2] of over 150 µM.
In the case of CC(=O)OC[C@H]1O[C@@H](NC(=O)c2ccc3ccc(C)nc3c2O)[C@H](OC(C)=O)[C@@H](OC(C)=O)[C@@H]1OC(C)=O, the Activity (HCT-116 [3]) is reported as “Active”, the Activity [4] is reported as “Active” and the IC50 (NHDF) is reported as 23.6 µM. It also gave an Activity [15] of 50%, an IC50 [1] of 15.1 µM and an IC50 [2] of 13.6 µM. For the same compound, the Activity (HCT-116 [5]) was “Active”, the Activity [6] was “Active” and the Activity (HCT-116 [11]) was “Active”. The Activity (Calf thymus DNA) was 16.2%, the Activity (HCT-116 [7]) was “Active” and the Activity (HCT-116 [16]) was “inactive”. For the same compound, the Activity (HCT-116 [9]) was “Active” and the Activity (HCT-116 [17]) was “Active”.
Compound CC(=O)OC[C@H]1O[C@@H](SC(=O)c2ccc3ccc(C)nc3c2O)[C@H](OC(C)=O)[C@@H](OC(C)=O)[C@@H]1OC(C)=O has an IC50 [1] of over 25 µM and an IC50 [2] of over 25 µM.
CC(=O)OC[C@H]1O[C@@H](Sc2ccc(N)cn2)[C@H](OC(C)=O)[C@@H](OC(C)=O)[C@H]1OC(C)=O showed an IC50 [1] of over 150 µM and an IC50 [2] of over 150 µM.
Compound CC(=O)OC[C@H]1O[C@@H](S)[C@H](OC(C)=O)[C@@H](OC(C)=O)[C@@H]1OC(C)=O has an IC50 [1] of over 500 µM and an IC50 [2] of over 750 µM.
With Cc1ccc2ccc(C(=O)N[C@@H]3O[C@H](COCc4ccccc4)[C@H](OCc4ccccc4)[C@H](OCc4ccccc4)[C@H]3OCc3ccccc3)c(O)c2n1 the Activity (HCT-116 [3]) was “Active”, the Activity [4] was “Active” and the IC50 (NHDF) was 18.6 µM. The IC50 [1] was 11.7 µM, the IC50 [2] was 11.6 µM and the Activity (HCT-116 [5]) was “Active”. For the same compound, the Activity [6] was “Active”, the Activity (HCT-116 [11]) was “Active” and the Activity (HCT-116 [13]) was “inactive”. For the same compound, the Activity (Calf thymus DNA) was 9%, the Activity (HCT-116 [7]) was “Active” and the Activity (HCT-116 [8]) was “Active”. For the same compound, the Activity (HCT-116 [9]) was “Active” and the Activity (HCT-116 [14]) was “Active”.
Cc1ccc2c(O)c(C(=O)O)ccc2n1 gave an IC50 [1] of over 750 µM and an IC50 [2] of over 750 µM.
For Cc1ccc2ccc(C(=O)O)c(O)c2n1, the IC50 [1] was over 750 µM and the IC50 [2] was over 750 µM.
